One data set relates to adult zebra mussels. The method, then: Laboratory research was carried out to investigate potash for mussel control by itself or in combination with oxidizing agents such as chlorine or hydrogen peroxide.
Experiments were carried out with adult zebra mussels using potassium chloride (KCl) alone, as well as chloramine, hydrogen peroxide and combinations thereof to determine the estimated time to 95% mortality. Experimentation was carried out at 100 mg/L K^+ and test temperatures ranged from 2 to 30° C.

In data set [1] the test system is young adult (<1.5 cm) zebra mussels. Briefly: Flow-through contact chamber mortality study, adult mussels. The data set is classed as in vivo. The note with it: for Final mortality of adult mussels: end of the 52 day trial. Here is the method: (§1) Mortality studies using flow through contact chambers were performed with young adult (<1.5 cm) zebra mussels and naturally occurring veliger populations at a small tributary of a canal located in southern Ontario, Canada. Water temperatures ranged between 20 and 25° C. throughout the trial.
Adult zebra mussels were exposed to three concentrations of K^+ (40 mg/l, 30 mg/l, and 20 mg/l) as well as a control chamber. Each concentration as well as the control was replicated three times. The nature of the design allowed for simultaneous trials with adults and veligers. Sixty adult mussels (six groups of ten) were exposed in each replicate test concentration and control tank. Mussels were contained in PVC mesh baskets which allowed free flow of water while maintaining the mussels in discrete groups of ten.
(§2) A concentrated potassium solution was metered into each replicate test line prior to its entering the test tanks from a pre-mixed batch tank. Potassium source was commercial grade potash which was 60% potassium by weight. The potassium concentration was controlled through differential metering rates. Flow-through trials were carried out for 52 days at which point final mortality in adults was recorded.

Data set [2] has as its system naturally occurring veliger larvae. Briefly: Larval settlement on PVC settling plates in flow-through tanks. The class given is in vivo, zebra mussel (Dreissena polymorpha). The note with it: 52 day trial period; for Larval (veliger) settlement: 30 mg/l K+. The method, then: as §1
In addition to adult trials, six PVC settling plates were installed in one replicate tank at each test concentration as well as the control. The presence of naturally occurring veliger larvae in the water source provided the opportunity of determining settling rates at each test concentration.
as §2

A further data set has as its system Daphnia magna. Nature of the data set: KCl toxicity test on non-target species (EPS protocol). The class given is in vivo. The settings on record: acute test. Here is the method: (§3) Studies were performed to investigate the environmental effects on non-target species of treatment with concentrations of potassium effective for controlling zebra mussels. As set out below, potassium when discharged at concentrations of 100 mg/l or less is an environmentally benign method of zebra mussel control. This is an important advantage over other methods of controlling zebra mussels such as by the use of chlorine or other oxidizing agents which can result in significant non-target species toxicity.
(§4) A stock solution at 1000 mg/l KCl was used to set all tests. Dilutions were made from these stocks. Test methods were as dictated by EPS protocols for each test organism.

A further data set has as its system Fathead minnow. The description is as above. The data set is classed as in vivo. Here is the method: as §3, §4
The next data set relates to Ceriodaphnia dubia. The description is as above. The class given is in vivo. The method, then: as §3, §4
Another data set has as its system Rainbow trout. Described as above. The class given is in vivo. The settings on record: acute test. Here is the method: as §3, §4

SMILES strings stand for the structures. Read-outs that look alike come from different tables or passages of the source. Marks after values point to notes of the source that are not given here. Where only a bound is given, the exact number is not on record here.

Turning to `OO` [H2O2, hydrogen peroxide], the “Estimated time (hours) to 95% mortality” value with adult zebra mussels (H2O2 5 mg/L, 12-14 °C, extrapolated value) was 1714* hours; in the data set with adult zebra mussels (H2O2 5 mg/L, 20-21 °C, extrapolated value) it was 455* hours; in the data set with adult zebra mussels (H2O2 5 mg/L, 22-24 °C, extrapolated value) it was 294* hours; in the data set with adult zebra mussels (H2O2 10 mg/L, 12-14 °C), 227 h; with adult zebra mussels (H2O2 10 mg/L, 20-21 °C), 36 h; in the data set with adult zebra mussels (H2O2 10 mg/L, 22-24 °C), 21 h.

For the compound `[K+]` [potassium cation], the Zebra mussel mortality in the data set on adult zebra mussels (100 mg/L potassium, in 48 hours, water temperatures above 15 °C) was 100%. The “Estimated time (hours) to 95% mortality” value in the data set with adult zebra mussels (KCl at 100 mg/L K+, 14-26 °C) is 22 h. The “Final mortality of adult mussels” value in data set [1] (20 mg/l K+, water 20-25 °C) was found to be 73%; in data set [1] (30 mg/l K+, water 20-25 °C), 91%. Further, the “Mortality of a target population” value in data set [1] (40 mg/L potassium, within two weeks, water temperatures above 15 °C) was “up to 100%”. The “Time to complete mortality of adult mussels” value in data set [1] (40 mg/l K+, flow-through, water 20-25 °C) is reported as ≤ 25 days. In addition, the “Mortality of zebra mussels over time (in words)” value in data set [1] (40 mg/l potassium) is “significant mortality within two weeks and complete mortality in this trial in just over three weeks”. The “Larval (veliger) settlement” value was “No larval settlement was detected” in data set [2] and “effective at preventing settlement of veligers” in data set [2] (listed as Potassium). In addition, the Larval settlement result in data set [2] (40 mg/l K+) was “No larval settlement was detected”.

With `NCl` [chloramine], the “Estimated time (hours) to 95% mortality” value in the data set on adult zebra mussels (chloramine 0.5 mg/L, 10-12 °C, extrapolated value) was 480* hours; in the data set with adult zebra mussels (chloramine 0.5 mg/L, 14-26 °C, extrapolated value) it was 97* hours; in the data set with adult zebra mussels (chloramine 1.0 mg/L, 10-12 °C), 258 h; with adult zebra mussels (chloramine 1.0 mg/L, 13-17 °C), 209 h; with adult zebra mussels (chloramine 1.0 mg/L, 14-26 °C), 60 h; in the data set on adult zebra mussels (chloramine 2.0 mg/L, 13-17 °C), 87 h.

By LC50 is commonly meant the concentration lethal to half of the exposed cells or organisms. By IC25 is commonly meant the concentration needed for an effect of 25%. A higher IC25 goes with weaker potency. One may read the IC50 as the concentration that inhibits the measured activity by half. As for `[Cl-].[K+]` [KCl, potassium chloride], the “Estimated time (hours) to 95% mortality” value was 283* hours in the data set on adult zebra mussels (KCl at 100 mg/L K+, 10-12 °C, extrapolated value); 165 h with adult zebra mussels (KCl at 100 mg/L K+, 12-14 °C); 113 h in the data set on adult zebra mussels (KCl at 100 mg/L K+, 13-17 °C); 22 h with adult zebra mussels (KCl at 100 mg/L K+, 14-26 °C); 56 h with adult zebra mussels (KCl at 100 mg/L K+, 20-21 °C); 33* hours with adult zebra mussels (KCl at 100 mg/L K+, 22-24 °C, extrapolated value). For the same compound, the LC50 with Daphnia magna is 188.8 µg/mL; in the data set on Fathead minnow it was 512.7 µg/mL; with Ceriodaphnia dubia, 219.6 µg/mL; with Rainbow trout, 1248.4 µg/mL. Also, the IC25 with Fathead minnow is 736.2 µg/mL; in the data set with Ceriodaphnia dubia it was 189.3 µg/mL. Besides, the IC50 was 892.5 µg/mL in the data set on Fathead minnow and 256.8 µg/mL in the data set on Ceriodaphnia dubia. The “GROWTH/REPRODUCTIVE DATA LOEC” value with Fathead minnow (NED = no effect detected) and in the data set on Ceriodaphnia dubia (NED = no effect detected) was “NED” each time. The “GROWTH/REPRODUCTIVE DATA NOEC” value with Fathead minnow (NED = no effect detected) and in the data set on Ceriodaphnia dubia (NED = no effect detected) was “NED” in each case. Also, the “GROWTH/REPRODUCTIVE DATA TEC” value with Fathead minnow (NED = no effect detected) and in the data set on Ceriodaphnia dubia (NED = no effect detected) was “NED” in each case. The “SURVIVAL DATA LOEC” value in the data set with Fathead minnow (chronic test) stood at 603 mg/L; in the data set on Ceriodaphnia dubia (chronic test), 385 mg/L. For the same compound, the “SURVIVAL DATA NOEC” value came to 302 mg/L with Fathead minnow (chronic test) and 193 mg/L in the data set on Ceriodaphnia dubia (chronic test). Further, the “SURVIVAL DATA TEC (threshold effect concentration)” value worked out at 426.7 mg/L in the data set on Fathead minnow (chronic test) and 272.6 mg/L with Ceriodaphnia dubia (chronic test).
